The results in this text go back to patent US4521537A, “Spiro[2H-1,4-benzodioxepin-3(5H)4'-piperidine and -3'-pyrrolidine] compounds and their use as antihypertensive agents” (Hoechst-Roussel Pharmaceuticals Incorporated, priority 1984, dated 1985).

Molecules are shown by their SMILES. Structures can show the parent of a compound that is named as a salt.

The assay relates to spontaneous hypertensive rat. Kind of assay: antihypertensive activity, spontaneous hypertensive rat (SHR) test, indirect tail cuff method. In kind it is in vivo. Here is the method: Compounds of this invention are useful as antihypertensive agents due to their ability to depress blood pressure in mammals. Antihypertensive activity is measured in the spontaneous hypertensive rat by the indirect tail cuff method described by A. Schwartz, Ed., Methods in Pharmacology, Vol. page 135, Appleton Century Crafts, New York (1971). […] The drop in blood pressure is measured on the third day following administration. The antihypertensive activity is expressed as mm Hg decrease in mean arterial blood pressure.

Setting [1] is: Table I, 50 mg/kg PO, three days.
The mark [2] stands for this setting: Table I, 3 mg/kg PO, three days.
The mark [3] stands for this setting: Table I, 10 mg/kg PO, three days.

For `CC1Oc2ccccc2COC12CCN(CCCC(c1ccc(F)cc1)c1ccc(F)cc1)CC2` (centres unmarked) [Example 8, 1'-[4,4-Bis-(4-fluorophenyl)butyl]-2-methylspiro[2H-1,4-benzodioxepin-3(5H)4'-piperidine]oxalate], under setting [1], the “SHR mm Hg (decrease in mean arterial blood pressure)” value was -102 mm Hg.
Consider `CC1Oc2ccccc2COC12CCN(CCCC1(c3ccc(F)cc3)OCCO1)CC2` (centres unmarked) [Example 9, 2-Methyl-1'-[3-[2-(4-fluorophenyl)-1,3-dioxolan-2yl]propyl]spiro[2H-1,4-benzodioxepin-3(5H)4'-piperidine]maleate], for which the “SHR mm Hg (decrease in mean arterial blood pressure)” value under setting [1] was -34 mm Hg.
Same read-out and setting: as for `CC1Oc2ccccc2COC12CCN(CCC=C(c1ccc(F)cc1)c1ccc(F)cc1)CC2` (centres unmarked) [Example 10, 1'-[4,4-Bis(4-fluorophenyl)-3-butenyl]-2-methylspiro[2H-1,4-benzodioxepin-3(5H)4'-piperidine]maleate], the figure is -18 mm Hg; as for `CC1Oc2ccccc2COC12CCN(CCCC(c1ccccc1)c1ccccc1)CC2` (centres unmarked) [Example 11, 1'-(4,4-Diphenylbutyl)-2-methylspiro[2H-1,4-benzodioxepin-3(5H)4'-piperidine]oxalate], -17 mm Hg.
Still for that read-out and setting: as for `CC1Oc2ccccc2COC12CCN(CCC=C(c1ccccc1)c1ccccc1)CC2` (centres unmarked) [Example 12, 1'-[4,4-Diphenyl-3-butenyl]-2-methylspiro[2H-1,4-benzodioxepin-3(5H)4'-piperidine]maleate], the figure is -20 mm Hg; as for `CC1Oc2ccccc2COC12CCN(CCCCc1ccc(F)cc1)CC2` (centres unmarked) [Example 14, 1'-[4-(4-Fluorophenyl)butyl]-2-methylspiro[2H-1,4-benzodioxepin-3(5H)4'-piperidine]hydrochloride], -34 mm Hg; as for `CC1Oc2ccccc2COC12CCN(CCCC(c1ccc(Cl)cc1)c1ccc(Cl)cc1)CC2` (centres unmarked) [Example 15, 1'-[4,4-Bis(4-chlorophenyl)butyl]-2-methylspiro[2H-1,4-benzodioxepin-3(5H)4'-piperidine]oxalate], -27 mm Hg.
Still for that read-out and setting: as for `CC1Oc2ccc(Cl)cc2COC12CCN(CCC=C(c1ccccc1)c1ccccc1)CC2` (centres unmarked) [Example 16, 1'-[4,4-Diphenyl-3-butenyl]-7-chloro-2-methylspiro[2H-1,4-benzodioxepin-3(5H)4'-piperidine]oxalate], the figure is -47 mm Hg.
As for `CC1Oc2ccc(Cl)cc2COC12CCN(CCCC(c1ccccc1)c1ccccc1)CC2` (centres unmarked) [Example 17, 1'-[4,4-Diphenylbutyl]-7-chloro-2-methylspiro[2H-1,4-benzodioxepin-3(5H)4'-piperidine]oxalate], the “SHR mm Hg (decrease in mean arterial blood pressure)” value reads like this: under setting [2], -23 mm Hg; under setting [1], -84 mm Hg.
As to `CC1Oc2ccc(Cl)cc2COC12CCN(CCCC(c1ccc(F)cc1)c1ccc(F)cc1)CC2` (centres unmarked) [Example 18, 1'-[4,4-Bis(4-fluorophenyl)butyl]-7-chloro-2-methylspiro[2H-1,4-benzodioxepin-3(5H)4'-piperidine]oxalate], the “SHR mm Hg (decrease in mean arterial blood pressure)” value (Table I, 0.3 mg/kg PO, three days) is reported as -41 mm Hg.
For `CC1Oc2ccc(Cl)cc2COC12CCN(CCC=C(c1ccc(F)cc1)c1ccc(F)cc1)CC2` (centres unmarked) [Example 19, 1'-[4,4-Bis(4-fluorophenyl)-3-butenyl]-7-chloro-2-methylspiro[2H-1,4-benzodioxepin-3(5H)4'-piperidine]oxalate], the “SHR mm Hg (decrease in mean arterial blood pressure)” value under setting [3] is recorded as -43 mm Hg.
Regarding `CC1Oc2ccc(Cl)cc2COC12CCN(CCC(c1ccccc1)c1ccccc1)CC2` (centres unmarked) [Example 20, 7-Chloro-2-methyl-1'-(3,3-diphenylpropyl)spiro[2H-1,4-benzodioxepin-3(5H)4'-piperidine]hydrochloride], the “SHR mm Hg (decrease in mean arterial blood pressure)” value under setting [1] was -15 mm Hg.
For `CC1Oc2ccc(Br)cc2COC12CCN(CCCC(c1ccc(F)cc1)c1ccc(F)cc1)CC2` (centres unmarked) [Example 21, 7-Bromo-1'-[4,4-bis(4-fluorophenyl)butyl]-2-methylspiro[2H-1,4-benzodioxepin-3(5H)4'-piperidine]oxalate], the “SHR mm Hg (decrease in mean arterial blood pressure)” value is -63 mm Hg under setting [2] and -74 mm Hg (Table I, 5 mg/kg PO, three days).
For the compound `CC1Oc2ccccc2COC12CCN(CCCC(O)c1ccc(F)cc1)CC2` (centres unmarked) [Example 23, 1'-[4-Hydroxy-4-(4-fluorophenyl)butyl]-2-methylspiro[2H-1,4-benzodioxepin-3(5H)4'-piperidine]], under setting [3], the “SHR mm Hg (decrease in mean arterial blood pressure)” value is -31 mm Hg.
On to `CC1Oc2ccccc2COC12CCN(CCCC(Oc1ccc(F)cc1)c1ccc(F)cc1)CC2` (centres unmarked) [Example 24, 1'-[4-(4-Fluorophenoxy)-4-(4-fluorophenyl)butyl]-2-methylspiro[2H-1,4-benzodioxepin-3(5H)4'-piperidine]oxalate], for which the “SHR mm Hg (decrease in mean arterial blood pressure)” value under setting [1] was -24 mm Hg.
In the case of `CC1Oc2ccccc2COC12CCNCC2` (centres unmarked) [Example 36, 2-Methylspiro[2H-1,4-benzodioxepin-3(5H)4'-piperidine]oxalate], the “SHR mm Hg (decrease in mean arterial blood pressure)” value under setting [1] was -42 mm Hg.
On to `CC1Oc2ccc(F)cc2COC12CCN(CCCC(c1ccccc1)c1ccccc1)CC2` (centres unmarked) [Example 41, 1'-(4,4-Diphenylbutyl)-7-fluoro-2-methylspiro[2H-1,4-benzodioxepin-3(5H)4'-piperidine]hydrochloride], for which the “SHR mm Hg (decrease in mean arterial blood pressure)” value under setting [1] is -34 mm Hg.
Same read-out and setting: as for `CC1Oc2ccc(F)cc2COC12CCN(CCCC(c1ccc(F)cc1)c1ccc(F)cc1)CC2` (centres unmarked) [Example 42, 1'-[4,4-Bis(4-fluorophenyl)butyl]-7-fluoro-2-methylspiro[2H-1,4-benzodioxepin-3(5H)4'-piperidine]hydrochloride], the figure is -126 mm Hg.
Consider `CC1Oc2ccc([N+](=O)[O-])cc2COC12CCN(CCCC(c1ccc(F)cc1)c1ccc(F)cc1)CC2` (centres unmarked) [Example 83, 1'-[4,4-Bis(4-fluorophenyl)butyl]-2-methyl-7-nitrospiro[2H-1,4-benzodioxepin-3(5H)4'-piperidine]hydrochloride], for which, where the note is “Table III, 3 mg/kg PO”, the “SHR mm Hg (decrease in mean arterial blood pressure)” value is listed as -65 mm Hg.
Take `CC1Oc2ccc(Cl)cc2COC12CCN(CCCC(C1CCCCC1)C1CCCCC1)CC2` (centres unmarked) [Example 87, 1'-(4,4-Dicyclohexylbutyl)-7-chloro-2-methylspiro[2H-1,4-benzodioxepin-3(5H)4'-piperidine]hydrochloride]: the “SHR mm Hg (decrease in mean arterial blood pressure)” value (Table III, 50 mg/kg PO) is on record as -69 mm Hg.
For the compound `C[C@](N)(Cc1ccc(O)c(O)c1)C(=O)O` [α-methyl dopa, reference compound], the SHR value (similar test, 50 mg/kg PO for five days) is -40 mm Hg.
